From PMC5622368, “Redundancy between nucleases required for homologous recombination promotes PARP inhibitor resistance in the eukaryotic model organism Dictyostelium” (Nucleic Acids Research, 2017)

Molecular target: T1, Adprt2 (Dictyostelium discoideum, UniProt Q8I7C6)
T1 construct: recombinant His-tagged, expressed and purified from bacteria
T1 sequence (Q8I7C6 1-700): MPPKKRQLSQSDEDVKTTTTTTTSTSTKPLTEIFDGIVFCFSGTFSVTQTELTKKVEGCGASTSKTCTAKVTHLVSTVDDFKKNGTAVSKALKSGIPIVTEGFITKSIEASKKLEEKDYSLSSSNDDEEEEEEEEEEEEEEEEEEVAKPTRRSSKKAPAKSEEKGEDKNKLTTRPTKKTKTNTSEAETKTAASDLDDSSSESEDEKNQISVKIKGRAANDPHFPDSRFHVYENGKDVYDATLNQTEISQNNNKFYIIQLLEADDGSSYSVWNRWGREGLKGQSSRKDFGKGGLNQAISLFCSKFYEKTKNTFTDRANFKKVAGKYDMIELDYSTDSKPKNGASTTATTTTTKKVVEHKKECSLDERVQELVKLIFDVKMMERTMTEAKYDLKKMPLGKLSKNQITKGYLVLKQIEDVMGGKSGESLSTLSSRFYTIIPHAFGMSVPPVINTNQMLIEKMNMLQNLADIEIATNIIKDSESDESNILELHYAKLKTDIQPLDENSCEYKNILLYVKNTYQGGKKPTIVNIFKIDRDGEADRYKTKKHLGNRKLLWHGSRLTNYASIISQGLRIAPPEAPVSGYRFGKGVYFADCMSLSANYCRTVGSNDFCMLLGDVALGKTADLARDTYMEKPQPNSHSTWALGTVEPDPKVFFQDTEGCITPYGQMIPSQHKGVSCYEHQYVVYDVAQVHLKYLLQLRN
Experiment: auto-ADP-ribosylation, […]-NAD+, SDS-PAGE and phosphorimager
Format: biochemical
Conditions: room temperature

[1] = 75 uM NAD+, 100 nM 32P-NAD+, 1 uM enzyme, Tris-HCl pH 8, 2 mM MgCl2, sheared salmon sperm DNA, 30 min

Row | Compound | auto-ADP-ribosylation, 32P-NAD+, SDS-PAGE and phosphorimager (75 uM NAD+ plus 100 nM 32P-NAD+ (labelled compound), pH 8, 2 mM MgCl2, sheared salmon sperm DNA) | auto-ADP-ribosylation, 32P-NAD+, SDS-PAGE and phosphorimager [1]
1 | NC(=O)c1ccc[n+]([C@@H]2O[C@H](COP(=O)(O)OP(=O)(O)OC[C@H]3O[C@@H](n4cnc5c(N)ncnc54)[C@H](O)[C@@H]3O)[C@@H](O)[C@H]2O)c1 [NAD+] | ADP-ribosylated species that co-migrates with recombinant Adprt1a or Adprt2 in our assays | –
2 | Cc1nc2c(O)cccc2c(=O)[nH]1 [NU1025] | – | these agents inhibit auto-ribosylation of the SSB-responsive ART Adprt2
3 | O=C(c1cc(Cc2n[nH]c(=O)c3ccccc23)ccc1F)N1CCN(C(=O)C2CC2)CC1 [olaparib] | – | olaparib and rucaparib are more effective at inhibiting Adprt1a than Adprt2
4 | CNCc1ccc(-c2[nH]c3cc(F)cc4c3c2CCNC4=O)cc1 [rucaparib] | – | olaparib and rucaparib are more effective at inhibiting Adprt1a than Adprt2
